Details: human gut metagenome, 24 h, 2 µM
Note: call rule not given here.

| Bacterial Biotransformation | Structure (SMILES) |
| --- | --- |
| Compound NOT metabolized | CCN(CC)CCOC(=O)C1(C2CCCCC2)CCCCC1 [DICYCLOMINE] |
| Compound metabolized | COc1ccc([C@@H]2Sc3ccccc3N(CCN(C)C)C(=O)[C@@H]2OC(C)=O)cc1 [DILTIAZEM] |

Assay: (§1) The drug is tested on Z-030 corresponding to mouse gut metagenome with ENA study accession number: PRJEB37062 and ENA sample accession number: ERS12561829 for biotransformation under anaerobic condition. The drug concentrations were measured over 9 timepoints collected between 0 and 24 hours of incubation by liquid-chromatography-coupled mass spectrometry (LC–MS)
Details: 2 µM

| Bacterial Biotransformation | Structure (SMILES) |
| --- | --- |
| Compound NOT metabolized | CCN(CC)CCOC(=O)C1(C2CCCCC2)CCCCC1 [DICYCLOMINE] |
| Compound NOT metabolized | COc1ccc([C@@H]2Sc3ccccc3N(CCN(C)C)C(=O)[C@@H]2OC(C)=O)cc1 [DILTIAZEM] |

Assay: as §1, with “Z-008” for “Z-030”, “to” for “to mouse gut”, “ERS12561808” for “ERS12561829”
Details: 2 µM

| Bacterial Biotransformation | Structure (SMILES) |
| --- | --- |
| Compound NOT metabolized | CCN(CC)CCOC(=O)C1(C2CCCCC2)CCCCC1 [DICYCLOMINE] |
| Compound NOT metabolized | COc1ccc([C@@H]2Sc3ccccc3N(CCN(C)C)C(=O)[C@@H]2OC(C)=O)cc1 [DILTIAZEM] |

Assay: as §1, with “WLS-220” for “Z-030”, “human” for “mouse”, “ERS12561769” for “ERS12561829”
Details: 2 µM

| Bacterial Biotransformation | Structure (SMILES) |
| --- | --- |
| Compound NOT metabolized | CCN(CC)CCOC(=O)C1(C2CCCCC2)CCCCC1 [DICYCLOMINE] |
| Compound metabolized | COc1ccc([C@@H]2Sc3ccccc3N(CCN(C)C)C(=O)[C@@H]2OC(C)=O)cc1 [DILTIAZEM] |

Details: human gut metagenome, 24 h, 2 µM
Remark: another data set of the same source

| Bacterial Biotransformation | Structure (SMILES) |
| --- | --- |
| Compound metabolized | CCN(CC)CCOC(=O)C1(C2CCCCC2)CCCCC1 [DICYCLOMINE] |
| Compound metabolized | COc1ccc([C@@H]2Sc3ccccc3N(CCN(C)C)C(=O)[C@@H]2OC(C)=O)cc1 [DILTIAZEM] |

Assay: as §1, with “WLS-310” for “Z-030”, “human” for “mouse”, “ERS12561785” for “ERS12561829”
Details: 2 µM

| Bacterial Biotransformation | Structure (SMILES) |
| --- | --- |
| Compound metabolized | CCN(CC)CCOC(=O)C1(C2CCCCC2)CCCCC1 [DICYCLOMINE] |
| Compound metabolized | COc1ccc([C@@H]2Sc3ccccc3N(CCN(C)C)C(=O)[C@@H]2OC(C)=O)cc1 [DILTIAZEM] |

Details: human gut metagenome, 24 h, 2 µM
Remark: another data set of the same source

| Bacterial Biotransformation | Structure (SMILES) |
| --- | --- |
| Compound metabolized | CCN(CC)CCOC(=O)C1(C2CCCCC2)CCCCC1 [DICYCLOMINE] |
| Compound metabolized | COc1ccc([C@@H]2Sc3ccccc3N(CCN(C)C)C(=O)[C@@H]2OC(C)=O)cc1 [DILTIAZEM] |

Details: human gut metagenome, 24 h, 2 µM
Remark: another data set of the same source

| Bacterial Biotransformation | Structure (SMILES) |
| --- | --- |
| Compound metabolized | CCN(CC)CCOC(=O)C1(C2CCCCC2)CCCCC1 [DICYCLOMINE] |
| Compound metabolized | COc1ccc([C@@H]2Sc3ccccc3N(CCN(C)C)C(=O)[C@@H]2OC(C)=O)cc1 [DILTIAZEM] |

Details: human gut metagenome, 24 h, 2 µM
Remark: another data set of the same source

| Bacterial Biotransformation | Structure (SMILES) |
| --- | --- |
| Compound metabolized | CCN(CC)CCOC(=O)C1(C2CCCCC2)CCCCC1 [DICYCLOMINE] |
| Compound metabolized | COc1ccc([C@@H]2Sc3ccccc3N(CCN(C)C)C(=O)[C@@H]2OC(C)=O)cc1 [DILTIAZEM] |

Assay: as §1, with “Z-020” for “Z-030”, “rabbit” for “mouse”, “ERS12561819” for “ERS12561829”
Details: 2 µM

| Bacterial Biotransformation | Structure (SMILES) |
| --- | --- |
| Compound NOT metabolized | CCN(CC)CCOC(=O)C1(C2CCCCC2)CCCCC1 [DICYCLOMINE] |
| Compound metabolized | COc1ccc([C@@H]2Sc3ccccc3N(CCN(C)C)C(=O)[C@@H]2OC(C)=O)cc1 [DILTIAZEM] |

Details: human gut metagenome, 24 h, 2 µM
Remark: another data set of the same source

| Bacterial Biotransformation | Structure (SMILES) |
| --- | --- |
| Compound NOT metabolized | CCN(CC)CCOC(=O)C1(C2CCCCC2)CCCCC1 [DICYCLOMINE] |
| Compound metabolized | COc1ccc([C@@H]2Sc3ccccc3N(CCN(C)C)C(=O)[C@@H]2OC(C)=O)cc1 [DILTIAZEM] |

Details: human gut metagenome, 24 h, 2 µM
Remark: another data set of the same source

| Bacterial Biotransformation | Structure (SMILES) |
| --- | --- |
| Compound metabolized | CCN(CC)CCOC(=O)C1(C2CCCCC2)CCCCC1 [DICYCLOMINE] |
| Compound metabolized | COc1ccc([C@@H]2Sc3ccccc3N(CCN(C)C)C(=O)[C@@H]2OC(C)=O)cc1 [DILTIAZEM] |

Details: human gut metagenome, 24 h, 2 µM
Remark: another data set of the same source

| Bacterial Biotransformation | Structure (SMILES) |
| --- | --- |
| Compound metabolized | CCN(CC)CCOC(=O)C1(C2CCCCC2)CCCCC1 [DICYCLOMINE] |
| Compound metabolized | COc1ccc([C@@H]2Sc3ccccc3N(CCN(C)C)C(=O)[C@@H]2OC(C)=O)cc1 [DILTIAZEM] |

Details: human gut metagenome, 24 h, 2 µM
Remark: another data set of the same source

| Bacterial Biotransformation | Structure (SMILES) |
| --- | --- |
| Compound NOT metabolized | CCN(CC)CCOC(=O)C1(C2CCCCC2)CCCCC1 [DICYCLOMINE] |
| Compound metabolized | COc1ccc([C@@H]2Sc3ccccc3N(CCN(C)C)C(=O)[C@@H]2OC(C)=O)cc1 [DILTIAZEM] |

Details: human gut metagenome, 24 h, 2 µM
Remark: another data set of the same source

| Bacterial Biotransformation | Structure (SMILES) |
| --- | --- |
| Compound NOT metabolized | CCN(CC)CCOC(=O)C1(C2CCCCC2)CCCCC1 [DICYCLOMINE] |
| Compound NOT metabolized | COc1ccc([C@@H]2Sc3ccccc3N(CCN(C)C)C(=O)[C@@H]2OC(C)=O)cc1 [DILTIAZEM] |

Assay: as §1, with “WLS-077” for “Z-030”, “human” for “mouse”, “ERS12561750” for “ERS12561829”
Details: 2 µM

| Bacterial Biotransformation | Structure (SMILES) |
| --- | --- |
| Compound NOT metabolized | CCN(CC)CCOC(=O)C1(C2CCCCC2)CCCCC1 [DICYCLOMINE] |
| Compound NOT metabolized | COc1ccc([C@@H]2Sc3ccccc3N(CCN(C)C)C(=O)[C@@H]2OC(C)=O)cc1 [DILTIAZEM] |

Assay: as §1, with “Z-003” for “Z-030”, “pig” for “mouse”, “ERS12561803” for “ERS12561829”
Details: 2 µM

| Bacterial Biotransformation | Structure (SMILES) |
| --- | --- |
| Compound NOT metabolized | CCN(CC)CCOC(=O)C1(C2CCCCC2)CCCCC1 [DICYCLOMINE] |
| Compound metabolized | COc1ccc([C@@H]2Sc3ccccc3N(CCN(C)C)C(=O)[C@@H]2OC(C)=O)cc1 [DILTIAZEM] |

Assay: as §1, with “WLS-007” for “Z-030”, “human” for “mouse”, “ERS12561742” for “ERS12561829”
Details: 2 µM

| Bacterial Biotransformation | Structure (SMILES) |
| --- | --- |
| Compound metabolized | CCN(CC)CCOC(=O)C1(C2CCCCC2)CCCCC1 [DICYCLOMINE] |
| Compound NOT metabolized | COc1ccc([C@@H]2Sc3ccccc3N(CCN(C)C)C(=O)[C@@H]2OC(C)=O)cc1 [DILTIAZEM] |

Assay: as §1, with “Z-026” for “Z-030”, “to” for “to mouse gut”, “ERS12561825” for “ERS12561829”
Details: 2 µM

| Bacterial Biotransformation | Structure (SMILES) |
| --- | --- |
| Compound NOT metabolized | CCN(CC)CCOC(=O)C1(C2CCCCC2)CCCCC1 [DICYCLOMINE] |
| Compound NOT metabolized | COc1ccc([C@@H]2Sc3ccccc3N(CCN(C)C)C(=O)[C@@H]2OC(C)=O)cc1 [DILTIAZEM] |

Details: human gut metagenome, 24 h, 2 µM
Remark: another data set of the same source

| Bacterial Biotransformation | Structure (SMILES) |
| --- | --- |
| Compound metabolized | CCN(CC)CCOC(=O)C1(C2CCCCC2)CCCCC1 [DICYCLOMINE] |
| Compound metabolized | COc1ccc([C@@H]2Sc3ccccc3N(CCN(C)C)C(=O)[C@@H]2OC(C)=O)cc1 [DILTIAZEM] |

— ChEMBL document CHEMBL5724914, “Linking interpersonal differences in gut microbiota composition and drug biotransformation activity” (2024)
